Measured values: patent US20250051409A1, “MODULATORS OF PHOSPHATIDYLSERlNE DECARBOXYLASE AND USE THEREOF” (THE NATIONAL INSTITUTE FOR BIOTECHNOLOGY IN THE NEGEV LTD., priority 2021, published 2025)
Square brackets hold non-standard residues; d marks the D form. Ends that are not written are not given here. Peptide text beside a SMILES is read from it. Dmt = Cc1cc(O)cc(C)c1C[C@H](N)C(=O)O; Orn = NCCC[C@H](N)C(=O)O

What was measured:
[1] = system: A549 lung cancer tumor xenograft; assay: A549 xenograft tumor growth under si-hSMAC-A; assay type: in vivo, athymic nude mice
Excerpt: (§1) Treatment was initiated when the average tumor volume in each group reached ˜50 mm^3. Results are presented as the mean tumor volume±SEM. […] Scale bars represent 50, 25 or 15 μm as indicated. […] Results are the means±SEM.
Male athymic nude mice (6-8 weeks old) were obtained from Envigo and were kept in Ben-Gurion University (Israel) animal facility in temperature-controlled rooms and provided with water and food pellets ad libitum. Lung cancer A549 (3×10^6) cells were implanted subcutaneously on the dorsal flanks. Tumor growth was recorded using digital calipers, and volumes were calculated using formula […] (L=length; W=width). Mice were divided randomly into three groups once the average tumor volume reached ˜80 mm^3, and were treated subcutaneously with si-NT (group 1) or si-hSMAC (group 2-350 nM group 3-700 nM final concentration) mixed with JetPEI reagent three times a week. Mice were sacrificed at the end of experiment, and the tumors were excised and processed for immunohistochemistry or frozen in liquid nitrogen for immunoblotting and RNA isolation. All procedures involving mice were approved by the Institutional Animal Care and Use Committee.

SMAC/Diablo = SMAC/Diablo level in si-hSMAC-A treated tumors (immunoblot, IHC); assay type: in vivo, athymic nude mice; conditions: relative to si-NT-TTs
Method: as §1
(§2) In order to reduce non-specific binding, sections were incubated in 10% normal goat serum for 2 h, then incubated with primary antibodies (Table 1) overnight at 4° C. […] Sections were washed with water, counterstained with hematoxylin, and mounted with Vectashield mounting medium (Vector Laboratories, Burlingame, CA).
Cells were harvested and washed twice with ice-cold PBS, and the pellets were lysed on ice for 30 min in a lysis buffer (50 mM Tris-HCl, pH 7.5, 150 mM NaCl, 1 mM EDTA, 1.5 mM MgCl2, 10% glycerol, 1% Triton X-100), freshly supplemented with a protease inhibitor cocktail (Calbiochem), incubated on ice for 20 min and centrifuged thereafter (10 min, 12000 g). The protein concentration of the supernatant was determined and […] were stored at −80° C. until used for gel electrophoresis and immunoblotting. Protein samples (10-20 μg) were subjected to SDS-PAGE and immunoblotting, using the selected primary antibodies, followed by incubation with HRP-conjugated secondary antibodies. HRP activity was determined using enhanced chemiluminescent substrate (Pierce Chemical, Rockford, IL). Band intensity was quantified using FUSION-FX (Vilber Lourmat, France).

Ki-67 = Ki-67 IHC in si-hSMAC-A treated tumors; assay type: in vivo, athymic nude mice
Method: as §1, §2

[2] = system: A549 lung cancer tumor xenograft; assay: TUNEL staining of si-hSMAC-A treated tumors; assay type: in vivo, athymic nude mice; conditions: data not shown
[3] = system: total phospholipids (PLs), PC, and PE; assay: PL, PC and PE levels in si-hSMAC-A treated tumors; assay type: in vivo, athymic nude mice; conditions: relative to si-NT-TTs
[4] = biological target: T1, phosphatidylserine decarboxylase (PSD) (Homo sapiens, UniProt Q9UG56); assay: MST binding of synthetic peptides to fluorescently-labelled purified PSD; conditions: PSD 0.25 μM, peptide 1-10 μM, 30 min at 37° C.
T1 construct: Purified recombinant protein (full length) of human phosphatidylserine decarboxylase (PSD); His tag (N); purchased Acris-OriGene; host or cells: E. coli
T1 sequence (Q9UG56 53-409): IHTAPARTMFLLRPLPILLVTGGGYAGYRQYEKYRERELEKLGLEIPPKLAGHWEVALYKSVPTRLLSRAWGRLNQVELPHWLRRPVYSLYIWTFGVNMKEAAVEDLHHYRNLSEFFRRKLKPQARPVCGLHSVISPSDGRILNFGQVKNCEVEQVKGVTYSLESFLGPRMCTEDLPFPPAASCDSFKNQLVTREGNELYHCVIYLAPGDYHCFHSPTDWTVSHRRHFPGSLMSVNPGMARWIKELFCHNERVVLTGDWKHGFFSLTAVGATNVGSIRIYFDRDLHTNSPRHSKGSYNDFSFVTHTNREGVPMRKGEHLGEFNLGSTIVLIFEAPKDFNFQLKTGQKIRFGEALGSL

[5] = biological target: T1, phosphatidylserine decarboxylase (PSD); assay: Peptide array blotted with PSD preincubated with peptide; assay type: binding; conditions: PSD 0.15 μM, peptide 20 μM
Method: (A) Schematic presentation of peptide array and detection of their interaction with SMAC. (B) Glass-bound peptide array consisting of overlapping peptides derived from […] SMAC-interacting proteins were incubated overnight with purified SMAC (0.3 μM) and then blotted with anti-SMAC antibodies (1:1000), followed by incubation with HRP-conjugated anti-mouse IgG and detection using a chemiluminescence kit. Dark spots represent binding of SMAC to peptides derived from SMAC-interacting proteins. (C) SMAC (0.3 μM) was incubated with purified PSD (0.4 μM) and blotted as in (B). The peptide spots where PSD prevented interaction with SMAC are circled. (D) Schematic presentation of peptide array and detection of their interaction with PSD. (E) Peptide array was blotted with purified PSD (0.15 μM) and then with anti-PSD antibodies as in (B). […]
Customized 768-peptide sequences derived from 11 SMAC-interacting proteins produced by INTAVIS Peptide Services (GmbH & Co. KG, Tubingen, Germany) were arrayed on a glass slide. […] Following extensive slide washing with Tris-buffered saline containing 0.05% Tween-20, SMAC or PSD binding was detected using anti-SMAC or anti-PSD antibodies and HRP-conjugated anti-rabbit or anti-mouse IgG as a secondary antibody. […]

A-549 cells = assay: Cell death on DSB-3 staining; assay type: cell-based, human; conditions: data not shown
Method: A549 and A549-SMAC-KO cells were seeded on sterile cover slips in 24-well cell culture plates (75,000 cells/well) and allowed to adhere for 24 h. MitoTracker® (250 nM in DMEM+10% FBS) was added, and plates were incubated in a CO2 incubator for 30 min at 37° C. Cells were washed with PBS and incubated with DSB3 (10 μM in reaction buffer; 40 mM NaCl, 1 mM KPO4, pH 7.4) in a C02 incubator for 2 h. Cells were washed with PBS, fixed with 4% PFA for 20 min at room temperature, washed with PBS, and stained with DAPI for 20 min at room temperature. Cover slips were washed with PBS and mounted with Vectashield, and imaging was done using confocal microscopy (Olympus 1X81).

SMAC = assay: IF staining of peptide-treated tumor sections, SMAC; assay type: in vivo, nude mice; conditions: peptide-treated A549 tumors
Method: (§3) Sections of paraffin-embedded control and peptide treated tumors were IF stained using specific antibodies and subjected to quantification. Relative staining intensity for the nuclear proliferation marker, Ki-67 (and its (A), SMAC (B) and NF-kB (C). Results represent the means±SEM (n=3) ***P≤0.001. (G) Sections from the indicated tumors were stained with H & E, with some areas were magnified.
as §2

NF-κB = assay: IF staining of peptide-treated tumor sections, NF-κB; assay type: in vivo, nude mice; conditions: peptide-treated A549 tumors, immunofluorescence
Method: as §3, §2

Method for A549 cell xenografts: A549 cells were S.C. inoculated into female nude mice (7×10^6 cells/mouse). Tumors sizes were measured (using a digital caliper) and volumes were calculated. When tumors volumes reached 60-100 mm3 (day 12), the mice were divided into 2 groups and xenografts were untreated (●) or treated with HtrA2/Omi-derived D-amino acid peptide targeted to the mitochondria (D-HTRA2-M, o). The tumors were injected 3 times a week to a final concentration of 50 μM. […] Tumors of A549 cell xenografts were dissected, photographed (B) and weighted (C). […] Results represent the means±SEM (n=8), **P≤0.01, ***P≤0.001.
A549 cells were inoculated subcutaneously into female nude mice (7×10^6 cells/mouse). Tumors sizes were measured (using a digital caliper) and volumes were calculated. When tumors volumes reached 60-100 mm3 (day 12), the mice were divided into 2 groups (control and treatment) and in the treatment group xenografts were treated with HtrA2/Omi-derived D-amino acid peptide (SEQ ID NO:35) targeted to the mitochondria. The tumors were injected 3 times a week to a final concentration of 50 μM or the peptide was administered by intravenous injection 2 times a week to a final concentration of 20 mg/kg. Tumors of A549 cell xenografts were dissected, photographed and weighted.

si-hSMAC-A: Human SMAC/Diablo-specific siRNA, sense SEQ ID NO:33 and anti-sense SEQ ID NO:34 (sense AAGCGGUGUUUCUCAGAATTGTT; antisense AACAAUUCUGAGAAACCCGCTT; chemistry not given here)
tumor volume reduction relative to si-NT-treated tumors ([1]; si-hSMAC-A at 350 nM): 50% | tumor volume reduction relative to si-NT-treated tumors ([1]; si-hSMAC-A at 700 nM): 85% | decrease of SMAC/Diablo level in treated tumors (SMAC/Diablo): 75% | expression of Ki-67 in treated tumors (Ki-67): highly reduced | cell death in treated tumors [2]: No cell death was detected | decrease of PC in treated tumors [3]: 65% | decrease of PLs in treated tumors [3]: 50% | increase of PE in treated tumors [3]: 200%

ALLTSGTSDPRARVTYGTPSLWARL [1C11]
Kd [4]: 3 µM | PSD interaction with array peptides after pre-incubation of PSD with the peptide [5]: eliminate PSD interaction with most peptides

Distyrylbenzene-bis-aldehyde [DSB-3]
cell death (A-549 cells): induces no cell death

Cc1cc(O)cc(C)c1C[C@H](NC(=O)[C@@H](CCCNC(=N)N)NC(=O)[C@@H](CC(C)C)NC(=O)[C@@H](CCCNC(=N)N)NC(=O)[C@@H](C)NC(=O)[C@@H](Cc1c[nH]c2ccccc12)NC(=O)[C@@H](CC(C)C)NC(=O)[C@@H](CO)NC(=O)[C@H]1CCCN1C(=O)[C@H](NC(=O)CNC(=O)[C@@H](Cc1ccc(O)cc1)NC(=O)[C@H](NC(=O)[C@H](NC(=O)[C@@H](CCCNC(=N)N)NC(=O)[C@@H](C)NC(=O)[C@@H](CCCNC(=N)N)NC(=O)[C@H]1CCCN1C(=O)[C@@H](CC(=O)O)NC(=O)[C@@H](CO)NC(=O)[C@H](NC(=O)CNC(=O)[C@@H](CO)NC(=O)[C@H](NC(=O)[C@@H](CC(C)C)NC(=O)[C@@H](CC(C)C)NC(=O)[C@@H](C)N)[C@H](C)O)[C@H](C)O)C(C)C)[C@H](C)O)[C@H](C)O)C(=O)N[C@@H](CCCN)C(=O)N[C@@H](Cc1ccccc1)C(N)=O [1C11-HTRA2-All-D-Mito] (H-[dA][dL][dL][dT][dS]G[dT][dS][dD][dP][dR][dA][dR][dV][dT][dY]G[dT][dP][dS][dL][dW][dA][dR][dL][dR][Dmt][Orn]F-NH2; N-terminus and C-terminus assumed)
decrease in expression of SMAC in tumors (SMAC): 80% | decrease in NF-κB expression in tumors (NF-κB): ~90% | tumor growth (A549 cell xenografts; intravenously, 20 mg/kg): inhibits tumor growth | decrease of tumor weight (A549 cell xenografts; intravenously, 20 mg/kg, 2 times a week): 50% | inhibition of tumor growth (A549 cell xenografts; mouse, in vivo, iv): 50%
